According to patent US6800651B2 (Eli Lilly and Company, priority 2000, dated 2004):
Read-outs that look alike come from different tables or passages of the source. Marks after values point to notes of the source that are not given here.

Key:
mGlu2 receptor [1] = molecular target: T1, mGlu2 receptor (Homo sapiens, UniProt Q14416); experiment: Potentiation of glutamate-induced increase in intracellular calcium with a mGluR2 expressing cell line (FLIPR); assay type: cell-based; parameters: expressed in transfected cells; host or cells: RGT cells (co-transfected with GLAST), stably transfected with Galpha15; settings: read-out: % Maximal Response (mean ± SD, n=2)
Protocol: Potentiation of Glutamate-Induced Increase in Intracellular Calcium with a mGluR2 Expressing Cell Line.
Cell lines expressing human mGlu2 receptors were derived as previously described (Desai, Burnett, Mayne, Schoepp, Mol. Pharmacol. 48, 648-657, 1995) and cultured in DMEM with 5% dialyzed fetal bovine serum, 1 mM glutamine, 1 mM sodium pyruvate, 50 μg/ml Geneticin G418, and 0.2 mg/ml hygromycin B. Confluent cultures were passaged weekly. […] The RGT cell line expressing the mGluR2 receptors was stably transfected with the promiscuous G-protein, Galpha15 to change the signaling pathway to the mGlu2 receptor to one that could be easily measured through release of intracellular calcium. Thus, intracellular calcium levels were monitored before and after the addition of drugs on a Fluorometric Imaging Plate Reader (i.e. FLIPR, Molecular Devices). The following buffer was used throughout as an assay buffer: 10 mM KCl, 138 mM NaCl, 5 mM Ca Cl2, 1 mM MgCl2, 4 mM NaH2PO4, 10 mM Glucose, 10 mM HEPES, pH 7.4. Cells that had been plated 48 h prior at a density of 30-40,000 cells per well in a 96-well plate were loaded with a calcium-sensitive dye for 90 min at 25° C. Fluo-3 (2 mM in DMSO, Molecular Probes) were mixed with a equal volume of 10% pluronic acid in DMSO, and diluted to 8 μM into the buffer described above containing 10% fetal bovine serum to make the loading buffer. Following loading of the cells, the loading buffer was removed and replaced with assay buffer prior to drug addition and monitoring on the FLIPR.

Male Sprague-Dawley rats = experiment: Fear potentiated startle paradigm; assay type: in vivo; settings: rat
Protocol: Male Sprague-Dawley rats weighing 325-400 g were purchased from Harlan Sprague-Dawley, Inc. (Cumberland, Ind.) and given a one week acclimation period before testing. Rats were individually housed with food and water ad libitum in an animal room on a 12-hour light/dark cycle with lights on between 6:00 A.M. and 6:00 P.M. […] Control rats were given the respective vehicle. The fear potentiated startle paradigm is conducted over three consecutive days. All three days begin with a 5-minute adaptation period before the trial starts. On day one (baseline startle) after the adaptation period, the animal receives 30 trials of 120 dB auditory noise. The mean startle amplitude (Vmax) is used to assign animals to groups with similar means before conditioning begins. Day two consists of conditioning the animals. Each animal receives 0.5 mA of shock for 500 msec preceded by a 5 second presentation of light which remains on for the duration of the shock. Ten presentations of the light and shock are administered. Day three is the testing trial where drug administration occurs prior to testing. Twenty-four hours after conditioning, startle testing sessions are conducted. Ten trials of acoustic startle (120 dB), non-light paired, are presented at the beginning of the session. This is followed by 20 random trials of the noise alone and 20 random trials of noise preceded by light. […] Data is presented as the difference between light+noise and noise-alone. Differences in startle response amplitudes were analyzed by JMP statistical software using a One-way Anova (analysis of variance, t-test). Group differences were considered to be significant at p<0.05. In the experiment shown below the compound of Example 16 was given i.p. 30 minutes prior to testing.

mGlu2 receptor [2] = molecular target: T1, mGlu2 receptor; experiment: [3H]-2S-2-Amino-2-(1S,2S-2-carboxycyclopropan-1-yl)-3-(xanth-9-yl) propionic acid receptor binding (displacement), membranes of mGlu2 receptor expressing RGT cells; parameters: expressed in transfected cells; host or cells: RGT cells (co-transfected with the rat glutamate/aspartate transporter GLAST); washed membranes; settings: displacement of 1 nM [3H]-2S-2-amino-2-(1S,2S-2-carboxycyclopropan-1-yl)-3-(xanth-9-yl)propionic acid; homogenates of mGlu2 receptor expressing cell line
Protocol: Membranes from mGlu2 receptor expressing RGT cells were prepared by harvesting adherent cells from confluent T-150 flasks with a cell scraper. Cells and media were then placed in 50 ml conical tubes and centrifuged at 4° C. at 1000 g for 5 minutes. The supernatant was removed and the pellet was frozen at −10° C. until use. Washed cell membranes were prepared by adding 20 ml of 10 mM potassium phosphate buffer pH 7.6 @ 5° C.+100 mM potassium bromide and homogenizing with an Ultra-Turrax tissuemizer for 15 seconds at 90% output. The homogenate was centrifuged at 48,000×g for 10 minutes at 5° C. This last step was repeated two times, and the final pellet was resuspended in 10 ml of the same buffer and reserved on ice until initiating the binding assay.
The incubation was initiated by the addition of the membrane suspension, (about 15 μg membrane protein), and allowed to continue on ice for 30 min. Incubation was terminated by rapid filtration with a Brandel cell harvester through glass fiber Whatman GF/B filters pre-wet with the same potassium phosphate buffer assay buffer (at 4° C.). The filters were washed five times with 1 ml of buffer. Filter sections were transferred to minivials and 5 ml of Fisher Scientific ScintiSafe liquid scintillation cocktail was added to each vial. Vials were allowed to set for several hours prior to counting on a Beckman LS6000 liquid scintillation counter.

[3] = tested on: Harlan Sprague-Dawley rats; experiment: Animal model of dural protein extravasation (trigeminal ganglion stimulation); assay type: in vivo; settings: rat, ratio stimulated/unstimulated side of dura
Protocol: Harlan Sprague-Dawley rats (250-350 g) were anesthetized with sodium pentobarbital intraperitoneally (65 mg/kg) and placed in a stereotaxic frame (David Kopf Instruments) with the incisor bar set at −3.5 mm. Following a midline sagital scalp incision, two pairs of bilateral holes were drilled through the skull (6 mm posterially, 2.0 and 4.0 mm laterally, all coordinates referenced to bregma). Pairs of stainless steel stimulating electrodes, insulated except at the tips (Rhodes Medical Systems, Inc.), were lowered through the holes in both hemispheres to a depth of 9 mm. The femoral vein was exposed and a dose of the test compound was injected intravenously (i.v.) at a dosing volume of 1 ml/kg or, in the alternative, test compound was administered orally (p.o.) via gavage at a volume of 2 ml/kg. Approximately 8 minutes post i.v. injection, a 50 mg/kg dose of Evans Blue, a fluorescent dye, was also injected intravenously. The Evans Blue complexed with proteins in the blood and functioned as a marker for protein extravasation. […] Fifteen minutes following stimulation, the animals were killed and exsanguinated with 40 mL of saline. The top of the skull was removed to facilitate the collection of the dural membranes. The membrane samples were removed from both hemispheres, rinsed with water, and spread flat on microscopic slides. […] A fluorescence microscope (Zeiss) equipped with a grating monochromator and a spectrophotometer was used to quantify the amount of Evans Blue dye in each sample. An excitation wavelength of approximately 535 nm was utilized and the emission intensity at 600 nm was determined. The microscope was equipped with a motorized stage and also interfaced with a personal computer. This facilitated the computer-controlled movement of the stage with fluorescence measurements at 25 points ([…]) on each dural sample. The mean and standard deviation of the measurements were determined by the computer. The extravasation induced by the electrical stimulation of the trigeminal ganglion was an ipsilateral effect (i.e. occurs only on the side of the dura in which the trigeminal ganglion was stimulated). This allows the other (unstimulated) half of the dura to be used as a control. The ratio of the amount of extravasation in the dura from the stimulated side, over the amount of extravasation in the unstimulated side, was calculated.

T1 sequence (Q14416 19-872): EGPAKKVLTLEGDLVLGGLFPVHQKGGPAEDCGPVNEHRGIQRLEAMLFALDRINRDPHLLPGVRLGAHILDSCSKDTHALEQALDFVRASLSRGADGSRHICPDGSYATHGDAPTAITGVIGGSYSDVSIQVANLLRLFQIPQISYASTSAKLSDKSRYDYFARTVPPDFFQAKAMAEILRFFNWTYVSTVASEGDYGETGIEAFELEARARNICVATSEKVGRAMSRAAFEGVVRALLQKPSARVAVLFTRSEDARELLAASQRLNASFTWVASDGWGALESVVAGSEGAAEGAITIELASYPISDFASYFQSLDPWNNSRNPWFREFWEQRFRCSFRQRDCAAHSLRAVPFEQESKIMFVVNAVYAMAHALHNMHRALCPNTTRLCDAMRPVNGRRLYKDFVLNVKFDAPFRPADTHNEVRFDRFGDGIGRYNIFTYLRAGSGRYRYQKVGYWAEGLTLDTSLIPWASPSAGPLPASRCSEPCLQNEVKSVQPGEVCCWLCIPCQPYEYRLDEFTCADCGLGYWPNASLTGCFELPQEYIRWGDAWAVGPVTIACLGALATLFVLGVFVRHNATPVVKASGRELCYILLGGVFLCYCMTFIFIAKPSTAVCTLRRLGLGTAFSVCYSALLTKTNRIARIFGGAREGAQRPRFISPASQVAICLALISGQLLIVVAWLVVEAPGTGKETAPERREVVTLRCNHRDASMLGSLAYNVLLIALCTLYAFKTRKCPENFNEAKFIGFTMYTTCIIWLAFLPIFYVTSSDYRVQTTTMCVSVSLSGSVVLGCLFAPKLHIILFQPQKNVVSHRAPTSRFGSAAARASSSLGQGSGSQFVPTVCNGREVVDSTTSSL

- Emax (mGlu2 receptor [1]; 8 nM Glutamate + 1 μM compound): 2.8 ± 1.9%
- Emax (mGlu2 receptor [1]; 24 nM Glutamate + 1 μM compound): 0.1 ± 0.8%
- Emax (mGlu2 receptor [1]; 80 nM Glutamate + 1 μM compound): 0.3 ± 1.1%
- Emax (mGlu2 receptor [1]; 240 nM Glutamate + 1 μM compound): 17.4 ± 2.8%
- Emax (mGlu2 receptor [1]; 800 nM Glutamate + 1 μM compound): 62.9 ± 0.1%
- Emax at 1 µM (mGlu2 receptor [1]; 1 μM compound, Buffer (no agonist), glutamate series 24 μM to 8 nM): 1.6 ± 1%
- Emax (mGlu2 receptor [1]; 2.4 μM Glutamate + 1 μM compound): 92.5 ± 4.4%
- Emax (mGlu2 receptor [1]; 8 μM Glutamate + 1 μM compound): 98.4 ± 6.4%
- Emax (mGlu2 receptor [1]; 24 μM Glutamate + 1 μM compound): 95.4 ± 2.4%
- Ki (mGlu2 receptor [2]): > 100 µM
Compound: COc1ccccc1Oc1ccc(N(Cc2cccnc2)S(=O)(=O)CC(F)(F)F)cc1 [Example 16, N-(4-(2-Methoxyphenoxy)phenyl)-N-(2,2,2-trifluoroethylsulfonyl)pyrid-3-ylmethylamine]
- Difference in Startle Amplitude (Vmax) + S.E. (Male Sprague-Dawley rats; Exp. 1, 0.03 mg/kg i.p. 30 minutes prior to testing, light+noise minus noise-alone): 108 + 41
- Difference in Startle Amplitude (Vmax) + S.E. (Male Sprague-Dawley rats; Exp. 1, 0.3 mg/kg i.p. 30 minutes prior to testing): 154 + 38
- Difference in Startle Amplitude (Vmax) + S.E. (Male Sprague-Dawley rats; Exp. 1, 3.0 mg/kg i.p. 30 minutes prior to testing): 21 + 24*
- Difference in Startle Amplitude (Vmax) + S.E. (Male Sprague-Dawley rats; Exp. 2, 1.0 mg/kg i.p. 30 minutes prior to testing): 120 + 87*
- Difference in Startle Amplitude (Vmax) + S.E. (Male Sprague-Dawley rats; Exp. 2, 3.0 mg/kg i.p. 30 minutes prior to testing): 148 + 86*
- Difference in Startle Amplitude (Vmax) + S.E. (Male Sprague-Dawley rats; Exp. 2, 10.0 mg/kg i.p. 30 minutes prior to testing): 105 + 91*
- Extrav. Ratio ± s.e.m. ([3]; 10 pg/kg i.v.): 1.87 ± 0.07
- Extrav. Ratio ± s.e.m. ([3]; 100 pg/kg i.v.): 1.37 ± 0.07
- Extrav. Ratio ± s.e.m. ([3]; 1 ng/kg i.v.): 1.04 ± 0.05
- Extrav. Ratio ± s.e.m. ([3]; 100 ng/kg i.v.): 0.99 ± 0.004
